Experimental data from US9566252B2, “Method for the alleviation of dyspareunia in women” (HORMOS MEDICAL LTD., priority 2000, dated 2017).
Read-outs that look alike come from different tables or passages of the source. Each block holds one molecule with its values, some of them ahead of it.

Columns and labels:
vaginal dryness = test: Vaginal dryness symptoms by visual analogue scale (subjective estimates); format: in vivo, healthy postmenopausal female volunteers; conditions: FIG. 2; for Effect on vaginal dryness, individuals' subjective estimate (visual analogue scale): change pre-treatment to 3 months, all ospemifene dosage levels (30, 60, 90 mg daily), raloxifene 60 mg daily
Experimental: The vaginal dryness symptoms were also assessed by using a visual analogue scale where the volunteers themselves recorded their subjective estimates. The scale is based on a 100-mm line on paper. The left end represents no symptom and the right end the worst possible symptom. The change from pre-treatment to 3 months estimates was assessed and considered to be indicative of the treatment efficacy.

[1] = clinical studies
Experimental: (§1) Tolerability and pharmacokinetics were also assessed.

endometrium = conditions: for Increase in thickness of the endometrium, average: statistically not significant
Experimental: as §1

vaginal epithelium = conditions: for Change in maturity index for superficial cells (MI 3), mean: index 100 full estrogen, index 0 no estrogenicity; for Change in maturity index for parabasal cells (MI 1), mean: index 100 no estrogenicity, index 0 full estrogen; for Pathological changes in cervical smear samples: 3 months' treatment, any sample; for Change from baseline to post-treatment in karyopyknosis index for superficial cells, individual subjects: ospemifene 30, 60, 90 mg daily, raloxifene 60 mg daily, all cases except one
Experimental: Raloxifene (60 mg daily) was used as reference. […] There were 29 volunteers at each dose level, as well as in the raloxifene group. Ospemifene was administered in gelatine capsules containing either 30, 60 or 90 mg of ospemifene. […] The vaginal epithelium was assessed by karyopyknosis index which is a well known assessment method among the skilled persons. In this method, the vaginal fraction of the cervical smears is estimated as the percentage of the number of cells from different layers: the parabasal cell layer; the intermediate cell layer; and the superficial cell layer. Estrogenicity is seen by a shift towards superficial cell fraction. […] Samples were taken before and after the treatment (at 3 months).

sexual activity = conditions: of 70 patients followed up for 6 weeks
Text: In the clinical study, where the effects of ospemifene on quality of life and cardiovascular parameters were studied, the patients were asked for sexual activity. The questionnaire included “worsening” or “no effect” on sexual activity. Improvement on sexual activity was not asked. When 70 patients had been followed up for 6 weeks, 27 of them had spontaneously reported to the investigators increased sexual activity. Similar reports were independently obtained from different centers of the study.

[2] = 30 mg daily perorally, 3 months
[3] = 60 mg daily perorally, 3 months
[4] = 90 mg daily perorally, 3 months

SMILES: OCCOc1ccc(/C(=C(/CCCl)c2ccccc2)c2ccccc2)cc1 [Ospemifene, (deaminohydroxy)toremifene]
Effect on vaginal dryness, comparison of dose levels (vaginal dryness; 60 mg daily, 3 months): best result
Effect on vaginal dryness, individuals' subjective estimate (visual analogue scale) (vaginal dryness): clear decreasing effect
Tolerability [1]: excellent tolerability
Increase in thickness of the endometrium, average (endometrium; 30 mg daily, 3 months): 0.2 mm
Increase in thickness of the endometrium, average (endometrium; 60 mg daily, 3 months): 0.5 mm
Increase in thickness of the endometrium, average (endometrium; 90 mg daily, 3 months): 0.5 mm
Estrogenic effect on endometrial histology (endometrium; 30, 60, 90 mg daily, 3 months): weak estrogenic effect
Malignant findings in the endometrium (endometrium; 30, 60, 90 mg daily, 3 months): no malignant findings
Measured values of endometrial thickness (endometrium; 30, 60, 90 mg daily, all measured values): smaller than 8 mm
Change in maturity index for superficial cells (MI 3), mean (vaginal epithelium; [2]): +12.4
Change in maturity index for parabasal cells (MI 1), mean (vaginal epithelium; [2]): −40
Change in maturity index for superficial cells (MI 3), mean (vaginal epithelium; [3]): +5.5
Change in maturity index for parabasal cells (MI 1), mean (vaginal epithelium; [3]): −26
Change in maturity index for superficial cells (MI 3), mean (vaginal epithelium; [4]): +12.5
Change in maturity index for parabasal cells (MI 1), mean (vaginal epithelium; [4]): −48
Pathological changes in cervical smear samples (vaginal epithelium): No pathological changes
Change from baseline to post-treatment in karyopyknosis index for superficial cells, individual subjects (vaginal epithelium; 12 weeks' treatment): < 40
Estrogenic effect in the cervical smear (vaginal epithelium; 30, 60, 90 mg daily, 3 months): weak but statistically significant estrogenic effect
Effect on vaginal atrophy (vaginal epithelium; 30, 60 and 90 mg daily, 3 months, elderly female volunteers): significant decrease in vaginal atrophy
Increase in karyopyknosis index for superficial cells, single highest case (vaginal epithelium; one case in the 90 mg group, 12 weeks' treatment): 45
Patients spontaneously reporting increased sexual activity (sexual activity): 27

Pathological changes in cervical smear samples (vaginal epithelium): No pathological changes
SMILES: O=C(c1ccc(OCCN2CCCCC2)cc1)c1c(-c2ccc(O)cc2)sc2cc(O)ccc12 [Raloxifene, raloxifene, reference compound]
Effect on vaginal dryness, individuals' subjective estimate (visual analogue scale) (vaginal dryness): only a minor decrease
Change in maturity index for superficial cells (MI 3), mean (vaginal epithelium; [3]): −0.3
Change in maturity index for parabasal cells (MI 1), mean (vaginal epithelium; [3]): −2
Change from baseline to post-treatment in karyopyknosis index for superficial cells, individual subjects (vaginal epithelium; 12 weeks' treatment): no one in the raloxifene group (FIG. 1D) had a significant change
